The results in this text go back to patent US20010041733A1, “Heterocyclic ester and amide hair growth compositions and uses” (GPI NIL Holdings, Inc., priority 1998, published 2001).

The target of one experiment is FKBP12 (Homo sapiens, UniProt P62942). The experiment is described as follows: Ki test procedure: inhibition of peptidyl-prolyl isomerase (rotamase) activity, chymotrypsin-coupled assay. The experiment is classed as biochemical. The following applies: substrate N-succinyl-Ala-Ala-Pro-Phe-p-nitroanilide, read-out: Ki (apparent). The source says: The compounds used in the inventive methods and pharmaceutical compositions have an affinity for the inhibition of the prolyl peptidyl cis-trans isomerase activity of FKBP may be measured as an indicator of this affinity.
Sequence of FKBP12 (P62942 whole entry): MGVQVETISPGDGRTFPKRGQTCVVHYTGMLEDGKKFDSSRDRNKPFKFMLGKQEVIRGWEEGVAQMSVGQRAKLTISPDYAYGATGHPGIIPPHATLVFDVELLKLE
Inhibition of the peptidyl-prolyl isomerase (rotamase) activity of the compounds used in the inventive methods and pharmaceutical compositions can be evaluated by known methods described in the literature (Harding et al., Nature, […], 341:758-760; Holt et al. J. Am. Chem. Soc., 115:9923-9938). These values are obtained as apparent K1's and are presented for representative compounds in TABLE III.
The cis-trans isomerization of an alanine-proline bond in a model substrate, N-succinyl-Ala-Ala-Pro-Phe-p-nitroanilide, is monitored spectrophotometrically in a chymotrypsin-coupled assay, which releases para-nitroanilide from the trans form of the substrate. The inhibition of this reaction caused by the addition of different concentrations of inhibitor is determined, and the data is analyzed as a change in first-order rate constant as a function of inhibitor concentration to yield the apparerent K1, values. […]
The absorbance at 390 nm versus time is monitored for 90 seconds using a spectrophotometer and the rate constants are determined from the absorbance versus time data files.

Experiment [1] concerns C57 black 6 mice. The experiment can be described thus: In vivo hair generation test, Experiment B. The conditions noted are these: one micromole per milliliter topical, three times per week, 14 days after initiation of treatment. Here is the method: Care was taken not to nick or cause abrasion to the underlying dermal layers. The animals were in a […] growth phase when shaved. […] The animals were treated three times per week, and hair growth was evaluated 14 days after initiation of treatment.

The test system of experiment [2] is C57 black 6 mice. The experiment is described as follows: In vivo hair generation test, Experiment A. The following applies: 30 μM topical in 20% propylene glycol, 3 applications, after six weeks. The source says: Care was taken not to nick or cause abrasion to the underlaying dermal layers. The animals were in anagen growth phase, as indicated by the pinkish color of the skin. […] Hair growth was quantitated by the percent of shaved area covered by new hair growth during this time period.

On to `CCC(C)(C)C(=O)C(=O)N1CSC[C@@H]1C(=O)OCCCc1ccccc1` [Compound 1, 3-phenyl-1-propyl (2S)-1-(3,3-dimethyl-1,2-dioxopentyl)-2-(4-thiazolidine)carboxylate], for which the Ki at FKBP12 was 215 nM.

Take `CCC(C)(C)C(=O)C(=O)N1CCS[C@@H]1C(=O)OCCCc1cccnc1` [GPI 1572]: the “hair growth (relative hair growth index, FIG. 5)” value in the experiment with C57 black 6 mice [1] was “dramatic hair growth”. In the case of `CCC(C)(C)C(=O)C(=O)N1CSC[C@@H]1C(=O)OCCCc1cccnc1` [Compound 2, 3-(3-pyridyl)-1-propyl (2S)-1-(3,3-dimethyl-1,2-dioxopentyl)-2-(4-thiazolidine) carboxylate], on FKBP12, the Ki is 638 nM. In the case of `CCC(C)(C)C(=O)C(=O)N1CCC[C@H]1C(=O)OCCCc1cccnc1` [GPI 1046], the “hair regrowth in the shaved area” value in the experiment on C57 black 6 mice [2] is recorded as “essentially complete hair regrowth”.
